Measured values published in publication PMC8694685 (RSC Advances, 2021).

Tests used:
[1] = In vivo pharmacokinetics study, tail vein; design: species or system SD rats; details: SD, rat, plasma; intravenous, 17 mg kg^−1 Cur, n = 3
Method: Pharmacokinetics were studied in SD rats. SD rats were randomly divided into three groups with each group of three rats. […] Blood samples (0.5 mL) were extracted from the rat orbital sinus into heparinized centrifuge tubes at 3, 5, 10, 15, 30, 45, 60, 120 min and then centrifuged at 8000 rpm for 5 min to obtain the upper plasma. After that, Cur in plasma samples were extracted by adding ethyl acetate and vertexing for 5 min, then centrifuged at 5000 rpm for 5 min to get supernatant. Finally, the amount of Cur in the supernatant was measured by high-performance liquid chromatography (HPLC) based on established analytical method (SI). Various pharmacokinetic parameters (AUC, MRT, t1/2, Cmax, CL, and V) were calculated according to the analysis of DAS3.0 software.

[2] = In vitro release of curcumin, membrane dialysis; assay type: physicochemical; details: 30% ethanol in PBS pH7.4, 37 °C
Method: The membrane dialysis method was used for the drug release profile of CTPP–PEG–PCT. […] The end-sealed dialysis bag was placed in 30% ethanol in PBS (0.1 M, pH7.4) was used as dissolution medium at 37 °C, and medium was collected at determined time point. The amount of Cur released in the medium was monitored by UV-vis spectroscopy, and the experiments were repeated for three times.

liver fibrosis = assay: In vivo pharmacodynamic experiment, CCl4 liver fibrosis model; details: CCl4 mice, tail vein twice a week for eight weeks, Cur 17 mg kg^−1
Method: The mice were divided into five groups with five in each group randomly. The liver fibrosis model was established by injecting carbon tetrachloride (CCl4, 40% in olive oil, 1 mL kg^−1) intraperitoneally twice a week for four weeks. The mice were only administrated the same dosage of olive oil in control group. […] After treatment through veil tail, the mice were sacrificed and blood and livers were collected for the following study. After embedding in paraffin, the liver samples were cut into 5 μm slices. Then, liver slices were stained with hematoxylin–eosin staining (H&E) and Sirius Red staining solution for 2 h. After dehydration and fixation, the slices were observed and photographed by microscope.

red blood cells = assay: Hemolysis test; assay type: cell-based, mouse; details: 0.15–5 mg mL^−1, 37 °C, 1 hour
Method: The mixture was then centrifuged at 3000 rpm for 10 min. Finally, UV spectrophotometer was used to monitor the absorbance at 541 nm to investigate the hemolysis. Deionized water and 0.9% NaCl were used as the positive and negative control, respectively. The hemolysis ratio was calculated as following: [drawing 4] […]

AUC(0-inf) [1]: 5610 ng·h/mL
AUC(0-t) [1]: 5280 ng·h/mL
Cmax [1]: 12900 ± 1510 ng/mL
MRT [1]: 45.9 min
clearance [1]: 50 ± 6 mL/min/kg
half-life [1]: 48.1 ± 14.8 min
in vitro drug release behaviour [2]: released quickly
Compound: COc1cc(/C=C/C(=O)CC(=O)/C=C/c2ccc(O)c(OC)c2)ccc1O [Cur, Curcumin]
serum levels of AST and ALT vs saline group (liver fibrosis): decreased significantly
hemolysis ratio (red blood cells): less than 5%
